This note sets out measurements from ChEMBL document CHEMBL3745694, “Total synthesis and cytotoxic activities of longamide B, longamide B methyl ester, hanishin, and their analogues” (Bioorg Med Chem Lett, 2016).

pIC50: −log10 of the molar value. Some results are limits rather than exact numbers.

The test system of assay [1] is A549. Nature of the assay: Cytotoxicity against human A549 cells after 72 hrs by CCK-8 assay. As to conditions: A549, 72 h. The format is functional, cell-based.
Assay [2] in a line: Cytotoxicity against human PC3 cells after 72 hrs by CCK-8 assay. The format is functional, cell-based. The note with it: PC-3, 72 h.

As to `COC(=O)CC1CNC(=O)c2cccn21` (configuration not stated), the pIC50 in assay [1] and in assay [2] was under 3.70 in each case.
As to `COC(=O)CC1CNC(=O)c2ccc(Br)n21` (configuration not stated), the pIC50 is 4.19 in assay [1] and 4.15 in assay [2].
For `CCOC(=O)CC1CNC(=O)c2ccc(Br)n21` (configuration not stated) the same measures were 4.49 and 4.54.
For `COC(=O)Cc1c[nH]c(=O)c2ccc(Br)n12` the same measures were 3.78 and 3.75.
Turning to `O=C(O)CC1CNC(=O)c2ccc(Br)n21` (configuration not stated), the pIC50 in assay [1] and in assay [2] was under 3.70 in each case.
For `COC(=O)Cc1c[nH]c(=O)c2cccn12`, the pIC50 in assay [1] and in assay [2] was under 3.70 throughout.
Take `COC(=O)Cc1c[nH]c(=O)c2cc(Br)c(Br)n12`: the pIC50 in assay [1] and in assay [2] was under 3.70 throughout.
Take `CCOC(=O)CC1CNC(=O)c2cc(Br)c(Br)n21` (racemic): the pIC50 in assay [1] is 4.39; in assay [2], 4.41.
For `O=C(O)CC1CNC(=O)c2cc(Br)c(Br)n21` (racemic), the pIC50 in assay [1] and in assay [2] was under 3.70 throughout.
On to `COC(=O)CC1CNC(=O)c2cc(Br)c(Br)n21` (racemic), for which the values for the pIC50 in assay [1] and in assay [2] were 4.09 and 4.10, respectively.
For `CO[C@@]12[C@H](COC(N)=O)C3=C(C(=O)C(C)=C(N)C3=O)N1C[C@@H]1N[C@@H]12` [MITOMYCIN], the pIC50 in assay [1] was 5.77; in assay [2], 5.85.
